Assay results taken from PMC8797470, “Disruption of the pentraxin 3/CD44 interaction as an efficient therapy for triple‐negative breast cancers” (Clinical and Translational Medicine, 2022).
Ends that are not written are not given here.

Tests used:
[1] = test system: AKT, NF-κB and ERK1/2 activity in MDA-MB-231 cells; test: Western blot of PTX3-induced signalling; format: cell-based, human; conditions: with PTX3 treatment
From the text: Experimental cells were lysed with radioimmunoprecipitation assay buffer (RIPA) buffer. Specific antibodies including PTX3 (ab90806; Abcam), CEBPD (sc‐636; Santa Cruz Biotechnology), CD44 (GTX83114; GeneTex), α‐tubulin (T6199; Sigma), P84 (GTX70220; GeneTex), RAC1 (GTX100761; GeneTex), CDC42 (GTX100904; GeneTex), AKT (GTX121937; GeneTex), Phospho‐AKT (Ser473) (GTX128414; GeneTex), Phospho‐NF‐κB p65 (Ser536) (#93H1; Cell Signaling), RhoA (ab68826; Abcam), NF‐κB p65 (#3033; Cell Signaling), Phospho‐p38 MAPK (Thr180/Tyr182) (#9211; Cell Signaling), PTEN (ab32199; Abcam), p38 MAPK (#9212; Cell Signaling), Phospho‐SAPK/JNK (Thr183/Tyr185) (#4668; Cell Signaling), Phospho‐p70 S6 Kinase (Thr389) (MABS82; Millipore), Phospho‐PAK1 (Ser199/Ser204) (09‐258; Millipore), SAPK/JNK (#9252; Cell Signaling), Phospho‐p44/42 MAPK (ERK1/2) (Thr202/Tyr204) (#4377; Cell Signaling) and p44/42 MAPK (ERK1/2) (#9102; Cell Signaling) were used for Western blotting.

MDA-MB-231 cells = test: Transwell migration and Matrigel invasion assays; format: cell-based, human; conditions: with PTX3 treatment, 18 h
From the text: In migration assay, MDA‐MB‐231 cells seeded in 8.0 μm pore polycarbonate membrane inserts (BD Biosciences) in 24‐well plates. In Matrigel invasion assay, inserts were pre‐coated with an appropriate amount of Matrigel first, and the same number of cells seeded on the Matrigel. After cells adhered on the inserts, serum‐free DMEM medium added in the upper wells. Serum‐free medium containing the treatments of TGF‐β1, PTX3, PTX3NA, PTX3/N, PTX3/C, RI37, GI40, AD9, GR9, IgG1κ, PTX3 Ab‐10 or PTX3 Ab‐49 were then mixed into the lower wells of the 24‐well plates. After incubating for 18 h, cells outside the insert were removed by wiping. The inside the inserts were then stained by 4′,6‐diamidino‐2‐phenylindol (DAPI). Fluorescence microscope was used for counting the total number of migrated cells with 200× magnification. Different from the experimental design for the MDA‐MB‐231 cells, the migrated 4T1‐Luc2 cells in the inside of the insert were detected by luciferase activity.

Substance	PTX3-induced AKT, NF-κB and ERK1/2 activity (signalling pathways) [1]	PTX3-induced migration and invasion (MDA-MB-231 cells)
GI40: peptide, PTX3 amino acids 320–359 (GGGFDETLAFSGRLTGFNIWDSVLSNEEIRETGGAESCHI; also: biotin, position not given here)	suppressed	suppressed
RI37: peptide, PTX3 amino acids 200–236 (RPMRLESFSACIWVKATDVLNKTILFSYGTKRNPYEI; also: biotin, position not given here)	suppressed	suppressed
